Laboratory results as given in the supplement of paper PMC10307832.

Assays:
Experiment in all cases: relative viability (nuclei count vs DMSO), 5 days (fraction); higher = more cells survive
GW-2580 + OSI-027 = compound: COC1=CC=C(C=C1)COC2=C(C=C(C=C2)CC3=CN=C(N=C3N)N)OC [GW-2580] + COc1cccc2cc(-c3nc([C@H]4CC[C@H](C(=O)O)CC4)n4ncnc(N)c34)[nH]c12 [OSI-027] (partner 0.5 µM)
How it was run: (§1)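 Lung cancer cell lines in 1536-well plates got either a single drug or a fixed anchor-drug dose together with five library-drug doses (not always all listed) in √10 steps, by pin tool, on the day after seeding. Nuclei were counted after 5 days, and relative viability is the treated-to-vehicle ratio of nuclei counts. Values are medians of duplicate plates.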

GW-2580 + Vorinostat = compound: COC1=CC=C(C=C1)COC2=C(C=C(C=C2)CC3=CN=C(N=C3N)N)OC [GW-2580] + O=C(CCCCCCC(=O)Nc1ccccc1)NO [Vorinostat] (partner 1 µM)
How it was run: as §1

Fedratinib + Navitoclax = compound: Cc1cnc(Nc2ccc(OCCN3CCCC3)cc2)nc1Nc1cccc(S(=O)(=O)NC(C)(C)C)c1 [Fedratinib] + CC1(C)CCC(c2ccc(Cl)cc2)=C(CN2CCN(c3ccc(C(=O)NS(=O)(=O)c4ccc(N[C@H](CCN5CCOCC5)CSc5ccccc5)c(S(=O)(=O)C(F)(F)F)c4)cc3)CC2)C1 [Navitoclax] (partner 0.5 µM)
How it was run: as §1

Fedratinib + Pictilisib = compound: Cc1cnc(Nc2ccc(OCCN3CCCC3)cc2)nc1Nc1cccc(S(=O)(=O)NC(C)(C)C)c1 [Fedratinib] + CS(=O)(=O)N1CCN(Cc2cc3nc(-c4cccc5[nH]ncc45)nc(N4CCOCC4)c3s2)CC1 [Pictilisib] (partner 1 µM)
How it was run: as §1

Fedratinib + Linsitinib = compound: Cc1cnc(Nc2ccc(OCCN3CCCC3)cc2)nc1Nc1cccc(S(=O)(=O)NC(C)(C)C)c1 [Fedratinib] + C[C@]1(O)C[C@@H](c2nc(-c3ccc4ccc(-c5ccccc5)nc4c3)c3c(N)nccn32)C1 [Linsitinib] (partner 1 µM)
How it was run: as §1

Cell Line	relative viability (GW-2580 + OSI-027; first compound 0.08 µM)	relative viability (GW-2580 + OSI-027; first compound 0.8 µM)	relative viability (GW-2580 + OSI-027; first compound 2.53 µM)	relative viability (GW-2580 + OSI-027; first compound 8 µM)	relative viability (GW-2580 + Vorinostat; first compound 0.08 µM)	relative viability (GW-2580 + Vorinostat; first compound 0.8 µM)	relative viability (GW-2580 + Vorinostat; first compound 2.53 µM)	relative viability (GW-2580 + Vorinostat; first compound 8 µM)	relative viability (Fedratinib + Navitoclax; first compound 0.1 µM)	relative viability (Fedratinib + Navitoclax; first compound 0.3162 µM)	relative viability (Fedratinib + Navitoclax; first compound 1 µM)	relative viability (Fedratinib + Pictilisib; first compound 0.1 µM)	relative viability (Fedratinib + Pictilisib; first compound 0.3162 µM)	relative viability (Fedratinib + Pictilisib; first compound 1 µM)	relative viability (Fedratinib + Linsitinib; first compound 0.1 µM)	relative viability (Fedratinib + Linsitinib; first compound 0.3162 µM)	relative viability (Fedratinib + Linsitinib; first compound 1 µM)
NCI-H23	0.561	0.644	0.599	0.347	0.53	0.782	0.462	0.546	0.87	0.75	0.73	0.428	0.619	0.156	0.583	0.618	0.431
NCI-H322M	0.528	0.562	0.634	0.538	0.843	0.996	0.893	0.903	1.16	1.18	1.23	0.5	0.503	0.406	0.95	0.939	0.799
NCI-H441	0.653	0.634	0.586	0.77	0.913	0.951	0.68	0.783	0.534	0.341	0.574	0.441	0.42	0.239	0.518	0.442	0.343
NCI-H460	0.996	0.864	0.679	0.656	0.85	1.11	0.721	0.631	1.05	1.03	0.969	0.354	0.316	0.295	0.806	0.773	0.52
NCI-H520	0.276	0.316	0.241	0.272	0.935	0.651	0.768	0.682	1.13	1.07	0.983	0.267	0.315	0.215	1.09	1.25	1.02
NCI-H596	0.823	0.733	0.76	0.808	0.591	0.595	0.495	0.564	0.853	0.992	0.976	0.342	0.388	0.366	1.01	1.08	1.08
NCI-H647	0.68	0.612	0.646	0.745	0.726	0.511	0.59	0.447	1.14	1.2	0.97	0.377	0.477	0.309	1.14	1.16	1.11
NCI-H727	0.595	0.761	0.629	0.575	1.09	1.26	1.25	1.26	0.381	0.346	0.213	0.378	0.317	0.164	0.2	0.213	0.335
NCI-H838	0.413	0.428	0.472	0.431	0.789	0.782	0.691	0.771	1.11	1.17	1.06	0.449	0.47	0.213	1.01	1.05	0.984
NCI-H1355	0.378	0.466	0.37	0.35	0.701	0.656	0.529	0.697	0.796	0.973	0.949	0.366	0.437	0.382	0.684	0.822	0.796
NCI-H1395	0.64	0.689	0.661	0.684	0.669	0.662	0.623	0.742	1.3	1.13	0.962	0.515	0.642	0.469	1.2	1.29	1.28
NCI-H1437	0.943	0.864	0.889	0.85	0.923	0.918	0.674	0.534	1.14	1.02	0.988	0.339	0.528	0.119	1.03	0.978	0.884
NCI-H1651	0.804	0.753	0.748	0.896	0.516	0.636	0.534	0.555	0.914	0.958	1.07	0.566	0.591	0.0696	0.976	0.954	1.01
NCI-H1666	0.941	1.12	0.911	0.77	1.08	1.16	0.94	0.967	0.877	0.96	0.946	0.409	0.38	0.224	0.726	0.875	0.869
NCI-H1734	0.617	0.65	0.582	0.537	0.871	0.802	0.725	0.775	0.852	0.865	0.828	0.443	0.479	0.142	0.898	0.865	0.776
NCI-H1755	0.757	0.676	0.686	0.703	1.03	0.77	0.7	0.748	1	0.972	0.894	0.385	0.458	0.399	0.995	1	0.885
NCI-H1793	0.365	0.323	0.306	0.254	0.755	0.88	0.566	0.718	0.295	0.456	0.476	0.34	0.305	0.306	0.937	0.857	0.899
NCI-H1915	0.638	0.649	0.626	0.598	0.559	0.583	0.442	0.508	0.747	0.726	0.761	0.927	0.9	0.405	1.04	1.08	1.03

Cell Line	relative viability (GW-2580 + OSI-027; first compound 0.08 µM)	relative viability (GW-2580 + OSI-027; first compound 0.8 µM)	relative viability (GW-2580 + OSI-027; first compound 2.53 µM)	relative viability (GW-2580 + OSI-027; first compound 8 µM)	relative viability (GW-2580 + Vorinostat; first compound 0.08 µM)	relative viability (GW-2580 + Vorinostat; first compound 0.8 µM)	relative viability (GW-2580 + Vorinostat; first compound 2.53 µM)	relative viability (GW-2580 + Vorinostat; first compound 8 µM)	relative viability (Fedratinib + Navitoclax; first compound 0.1 µM)	relative viability (Fedratinib + Navitoclax; first compound 0.3162 µM)	relative viability (Fedratinib + Navitoclax; first compound 1 µM)	relative viability (Fedratinib + Pictilisib; first compound 0.1 µM)	relative viability (Fedratinib + Pictilisib; first compound 0.3162 µM)	relative viability (Fedratinib + Pictilisib; first compound 1 µM)	relative viability (Fedratinib + Linsitinib; first compound 0.1 µM)	relative viability (Fedratinib + Linsitinib; first compound 0.3162 µM)	relative viability (Fedratinib + Linsitinib; first compound 1 µM)
NCI-H1944	0.463	0.46	0.439	0.365	0.551	0.53	0.513	0.52	1.04	1.07	1.03	0.333	0.344	0.302	1.28	1.12	1.1
NCI-H1975	0.952	0.829	0.709	0.58	0.755	0.75	0.654	0.647	1.08	1.01	0.953	0.301	0.315	0.15	0.897	0.929	0.872
NCI-H1993	0.656	0.559	0.55	0.561	0.993	0.887	0.661	0.868	0.75	0.869	0.903	0.779	0.872	0.771	0.706	0.718	0.682
NCI-H2009	0.665	0.707	0.619	0.633	0.774	0.834	0.702	0.679	1.13	1.19	1.1	0.699	0.919	0.143	1.18	1.18	1.17
NCI-H2023	0.512	0.459	0.39	0.393	0.812	0.882	0.598	0.762	1.04	0.945	0.946	0.245	0.246	0.0814	0.603	0.673	0.601
NCI-H2085	0.985	0.86	0.653	0.886	0.786	0.856	0.735	0.821	1.01	1.01	0.883	0.361	0.442	0.375	0.845	0.872	0.858
NCI-H2087	0.681	0.675	0.564	0.588	0.802	0.807	0.696	0.715	0.928	0.962	1	0.705	1	0.27	1.02	0.923	0.859
NCI-H2126	0.697	0.793	0.706	0.716	0.817	0.794	0.749	0.814	0.852	0.831	0.86	0.489	0.514	0.391	0.689	0.732	0.682
NCI-H2228	0.569	0.6	0.639	0.545	0.605	0.759	0.539	0.509	0.631	0.838	0.599	0.363	0.432	0.127	0.609	0.837	0.543
NCI-H2347	0.341	0.364	0.371	0.433	0.619	0.621	0.549	0.575	0.675	0.823	0.733	0.584	0.513	0.561	0.871	0.922	0.878
NCI-H2405	0.643	0.668	0.609	0.618	1.05	1.19	0.9	0.785	0.583	0.895	0.506	0.338	0.443	0.34	0.704	0.962	0.702
NCI-H3122	1.28	1.24	1.19	0.895	1.08	1.06	1.06	1.13	1.01	0.964	1.01	0.621	0.551	0.152	1.02	1.01	0.948
PC-3 [JPC-3]	0.75	0.985	0.721	0.724	0.917	1.26	0.572	0.639	0.856	0.804	0.782	0.694	0.836	0.56	0.924	0.932	0.951
PC-14	1	1.08	0.671	0.817	0.919	0.977	0.724	0.607	1.16	1.08	0.989	0.465	0.606	0.438	0.927	1.03	0.92
RERF-LC-KJ	0.584	0.606	0.501	0.484	0.663	0.792	0.629	0.684	0.913	0.948	1.07	0.431	0.545	0.462	0.805	0.906	0.855
SK-LU-1	0.366	0.347	0.321	0.348	0.924	0.918	0.648	0.734		0.917	0.611	0.514	0.489	0.285		0.999	1.01
SK-MES-1	0.625	0.723	0.592	0.379	1.31	1.33	0.993	1.16	1.39	1.19	1.07	0.314	0.38	0.283	1.08	1.11	1
SW 1573	0.809	0.626	0.666	0.577	0.968	0.771	0.626	0.746	0.984	1	0.927	0.444	0.391	0.463	0.683	0.768	0.802
